Measured values reported in patent US11434242B2, “Dopamine-b-hydroxylase inhibitors” (BIAL-PORTELA & Cª, S.A., priority 2017, dated 2022).

Target: T1, Dopamine beta hydroxylase (Homo sapiens, UniProt P09172)
T1 construct: 125 μl of plasma; tissue Instituto Português do Sangue Transplantação; host or cells: human plasma from healthy donors
T1 sequence (P09172 40-617 limits assumed): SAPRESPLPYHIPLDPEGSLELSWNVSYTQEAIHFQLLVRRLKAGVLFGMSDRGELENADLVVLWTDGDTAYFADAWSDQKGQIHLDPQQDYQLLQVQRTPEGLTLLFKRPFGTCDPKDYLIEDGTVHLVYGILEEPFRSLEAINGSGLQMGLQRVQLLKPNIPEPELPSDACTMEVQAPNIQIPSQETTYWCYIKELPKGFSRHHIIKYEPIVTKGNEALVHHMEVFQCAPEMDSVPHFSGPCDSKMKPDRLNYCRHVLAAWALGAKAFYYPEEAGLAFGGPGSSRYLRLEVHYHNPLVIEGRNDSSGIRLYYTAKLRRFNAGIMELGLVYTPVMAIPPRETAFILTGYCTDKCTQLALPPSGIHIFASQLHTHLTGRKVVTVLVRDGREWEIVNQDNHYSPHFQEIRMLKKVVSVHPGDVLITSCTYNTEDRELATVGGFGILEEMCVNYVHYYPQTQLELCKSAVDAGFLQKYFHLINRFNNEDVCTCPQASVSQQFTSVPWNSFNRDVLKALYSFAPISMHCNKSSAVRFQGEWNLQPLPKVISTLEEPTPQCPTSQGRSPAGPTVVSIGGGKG
Test: Dopamine beta hydroxylase activity in human plasma
Type: biochemical
Details: for Plasma (0.01 μM), activity in % of control: inhibitor 0.01 μM; for Plasma (0.1 μM), activity in % of control: inhibitor 0.1 μM; for Plasma (1 μM), activity in % of control: inhibitor 1 μM
Method: Furthermore, the ability of a compound to inhibit DβH activity may be assessed in human plasma using the following assay. […]. Dopamine beta hydroxylase activity in human plasma was measured by the method of Nagatsu and Udenfriend (Nagatsu, T. and Udenfriend, S. “Photometric assay of dopamine-μ-hydroxylase activity in human blood.” Clin. Chem. 18(9) 980-983, 1972) with minor modifications. Catalase, N-ethylmaleimide, tyramine, disodium fumarate, pargyline, sodium acetate, ascorbic acid, copper sulfate and octopamine were obtained from Sigma Chemical Co., St. Louis, Mo. 63178. Human plasma samples were obtained from healthy donors (Instituto Português do Sangue Transplantação, Centro Sangue Transplantação, Porto, Portugal). From date of collection, plasma was stored at −80° C. until use. Test compounds were initially prepared in dimethyl sulfoxide at a concentration of 10 mM and diluted in dimethyl sulfoxide to the required concentrations. Test compounds were further diluted in ultrapure water to a concentration 20-fold to that of the final concentration to be tested. Final concentrations of test compounds were 10, 100 and 1000 nM. The various reagents used to make up the incubation buffer were premixed and consisted of the following components: sodium acetate buffer (1 M, pH 5.0, 18 ml), sodium fumarate (0.2 M, 4.5 ml), ascorbic acid (0.2 M, 4.5 ml, freshly prepared), pargyline (20 mM, freshly prepared, 4.5 ml), N-ethylmaleimide (0.2 M, 4.5 ml), catalase (10 000 U/ml, 9 ml), copper sulfate (20 μM, 4.5 ml) and 4.5 ultrapure water. The standard incubation mixture (total volume, 950 μl) contained: 50 μL of compound or vehicle (dimethyl sulfoxide 2%); 700 μL of incubation buffer; 125 μl of plasma (or saline for blank reaction or standard curve); 75 μl of saline. The reaction mixture was placed in water bath, shaking at 37° C. and pre-incubated for 10 minutes. Tyramine (0.5 M) was added and incubation proceeded for 45 minutes. The reaction contents were exposed to air. A sample of enzyme preparation (with 125 μl of plasma) that had been added perchloric acid 2 M at the end of the pre-incubation period was used as blank. A blank for each of the tested compounds was used. For octopamine standard curve, perchloric acid 2 M was replaced by increasing concentrations of octopamine prepared in perchloric acid 2 M (0.5, 1, 2.5, 5, 7.5, 10, 15, 20 μg/ml, final concentration). The incubation was stopped by adding 200 μl of 2 M molar perchloric acid, and the mixture was centrifuged at 9000 g for 5 min. The supernatant fluid (800 μL) was transferred to a column (SPE cartridge ISOLUTE SCX-3, 100 mg) and centrifuged at 150 g for 2 min. The column was washed two more times with 0.5 ml of ultrapure water by centrifuging at 150 g for 2 min. The adsorbed octopamine was eluted twice with 0.3 ml of 4 M ammonium hydroxide by centrifuging at 150 g for 2 min. Octopamine in the eluate was then converted to p-hydroxybenzaldehyde by adding 200 μl of sodium periodate (2%) and incubating for 6 min. Excess periodate was than reduced by adding 200 μl of sodium metabisulfite (10%). Absorbance was measured at […] in a 96-well plate by use of a SpectraMAX plus 384 (Molecular Devices) with software SOFTmax® PRO Software 5.3 spectrophotometer. Absorbance was linear with octopamine concentration from 0.5 to 20 μg/ml. Dopamine beta hydroxylase activity is determined as nmol of octopamine formed/ml of plasma/hour and effect of compounds is presented as % control.
Results are reported in the table below as activity in % of control at the inhibitor concentration tested.

SMILES | Plasma (0.01 μM), activity in % of control | Plasma (0.1 μM), activity in % of control | Plasma (1 μM), activity in % of control
CN1CCN(C(=O)Cc2[nH]c(=S)n3c2C[C@@H](c2c(F)ccc(Br)c2F)C3)CC1 [Example 91, (S)-2-(6-(3-bromo-2,6-difluorophenyl)-3-thioxo-2,5,6,7-tetrahydro-3H-pyrrolo[1,2-c]imidazol-1-yl)-1-(4-methylpiperazin-1-yl)ethan-1-one] | – | 19.0 % of control | 0 % of control
COCCNC(=O)Cc1[nH]c(=S)n2c1C[C@H](c1c(F)c(F)cc(F)c1F)C2 [Example 73, (R)—N-(2-methoxyethyl)-2-(6-(2,3,5,6-tetrafluorophenyl)-3-thioxo-2,5,6,7-tetrahydro-3H-pyrrolo[1,2-c]imidazol-1-yl)acetamide] | – | 75.9 % of control | 19.1 % of control
O=C(Cc1[nH]c(=S)n2c1C[C@H](c1c(F)ccc(Br)c1F)C2)NC1CCCC1CO (stereo partly drawn) [Example 120, 2-((R)-6-(3-bromo-2,6-difluorophenyl)-3-thioxo-2,5,6,7-tetrahydro-3H-pyrrolo[1,2-c]imidazol-1-yl)-N-(2-(hydroxymethyl)cyclopentyl)acetamide] | 132.5 % of control | 86.2 % of control | –
CCOC(=O)Cc1[nH]c(=S)n2c1C[C@H](c1c(F)ccc(Br)c1F)C2 [Example 60, Ethyl (R)-2-(6-(3-bromo-2,6-difluorophenyl)-3-thioxo-2,5,6,7-tetrahydro-3H-pyrrolo[1,2-c]imidazol-1-yl)acetate] | – | 68.9 % of control | 14.0 % of control
Cn1ccnc1CCc1[nH]c(=S)n2c1C[C@H](c1c(F)c(F)cc(F)c1F)C2 [Example 217, (R)-1-(2-(1-methyl-1H-imidazol-2-yl)ethyl)-6-(2,3,5,6-tetrafluorophenyl)-2,5,6,7-tetrahydro-3H-pyrrolo[1,2-c]imidazole-3-thione] | 99.8 % of control | 92.3 % of control | –
N#CCNC(=O)Cc1[nH]c(=S)n2c1C[C@H](c1c(F)c(F)cc(F)c1F)C2 [Example 27, (R)—N-(cyanomethyl)-2-(6-(2,3,5,6-tetrafluorophenyl)-3-thioxo-2,5,6,7-tetrahydro-3H-pyrrolo[1,2-c]imidazol-1-yl)acetamide] | – | 51.6 % of control | 7.6 % of control
CC(C)NC(=O)Cc1[nH]c(=S)n2c1C[C@@H](c1c(F)ccc(Cl)c1F)C2 [Example 88, (S)-2-(6-(3-chloro-2,6-difluorophenyl)-3-thioxo-2,5,6,7-tetrahydro-3H-pyrrolo[1,2-c]imidazol-1-yl)-N-isopropylacetamide] | – | 44.1 % of control | 6.1 % of control

Other lines, results leading:

Plasma (0.01 μM), activity in % of control | Plasma (0.1 μM), activity in % of control | Plasma (1 μM), activity in % of control | SMILES
101.3 % of control | 56.9 % of control | – | O=C(Cc1[nH]c(=S)n2c1C[C@H](c1c(F)ccc(F)c1F)C2)N[C@@H]1CCCOC1 [Example 365, N—((R)-tetrahydro-2H-pyran-3-yl)-2-((R)-3-thioxo-6-(2,3,6-trifluorophenyl)-2,5,6,7-tetrahydro-3H-pyrrolo[1,2-c]imidazol-1-yl)acetamide]
85.3 % of control | 56.0 % of control | – | Cn1c(CCC(=O)N2CCOCC2)c2n(c1=S)C[C@@H](c1c(F)ccc(F)c1F)C2 [Example 266, (R)-3-(2-methyl-3-thioxo-6-(2,3,6-trifluorophenyl)-2,5,6,7-tetrahydro-3H-pyrrolo[1,2-c]imidazol-1-yl)-1-morpholinopropan-1-one]
106.2 % of control | 63.2 % of control | – | Cn1c(CC(=O)N[C@@H]2CCOC2)c2n(c1=S)C[C@H](c1c(F)ccc(F)c1F)C2 [Example 412, 2-((S)-2-methyl-3-thioxo-6-(2,3,6-trifluorophenyl)-2,5,6,7-tetrahydro-3H-pyrrolo[1,2-c]imidazol-1-yl)-N—((R)-tetrahydrofuran-3-yl)acetamide]
87.8 % of control | 48.5 % of control | – | CN(C(=O)Cc1[nH]c(=S)n2c1C[C@H](c1c(F)ccc(F)c1F)C2)C1COC1 [Example 420, (R)—N-methyl-N-(oxetan-3-yl)-2-(3-thioxo-6-(2,3,6-trifluorophenyl)-2,5,6,7-tetrahydro-3H-pyrrolo[1,2-c]imidazol-1-yl)acetamide]
36.4 % of control | 6.2 % of control | – | Cn1cc(CNC(=O)Cc2c3n(c(=S)n2C)C[C@H](c2c(F)ccc(Cl)c2F)C3)cn1 [Example 338, (S)-2-(6-(3-chloro-2,6-difluorophenyl)-2-methyl-3-thioxo-2,5,6,7-tetrahydro-3H-pyrrolo[1,2-c]imidazol-1-yl)-N-((1-methyl-1H-pyrazol-4-yl)methyl)acetamide]
85.0 % of control | 67.0 % of control | – | Cl.Fc1ccc(F)c([C@H]2Cc3c(CCNC[C@@H]4CCCO4)[nH]c(=S)n3C2)c1F [Example 475, (R)-1-(2-((((S)-tetrahydrofuran-2-yl)methyl)amino)ethyl)-6-(2,3,6-trifluorophenyl)-2,5,6,7-tetrahydro-3H-pyrrolo[1,2-c]imidazole-3-thione hydrochloride]
41.7 % of control | 16.1 % of control | – | Cn1c(CC(=O)N2CCOCC2)c2n(c1=S)C[C@H](c1c(F)ccc(Cl)c1F)C2 [Example 329, (S)-2-(6-(3-chloro-2,6-difluorophenyl)-2-methyl-3-thioxo-2,5,6,7-tetrahydro-3H-pyrrolo[1,2-c]imidazol-1-yl)-1-morpholinoethan-1-one]
49.6 % of control | 12.8 % of control | – | CN(C)C(=O)C1CCN(C(=O)Cc2c3n(c(=S)n2C)C[C@H](c2c(F)ccc(Br)c2F)C3)CC1 [Example 452, (S)-1-(2-(6-(3-bromo-2,6-difluorophenyl)-2-methyl-3-thioxo-2,5,6,7-tetrahydro-3H-pyrrolo[1,2-c]imidazol-1-yl)acetyl)-N,N-dimethylpiperidine-4-carboxamide]
